# Test results taken from patent US10053417B2, “Neprilysin inhibitors” (THERAVANCE BIOPHARMA R&D IP, LLC, priority 2013, dated 2018).
# Molecular target: T1, human NEP (Homo sapiens, UniProt P08473)
# T1 construct: purchased R&D Systems, Minneapolis, Minn; 1182-ZN
# Assay: In vitro enzyme inhibition assay, inhibitor potency at human NEP (Assay 1)
# Type: biochemical
# Settings: recombinant human NEP; fluorogenic peptide substrate 10 μM; 37° C.; values given as ranges
# Experimental: The inhibitory activities of compounds at human and rat neprilysin (EC 3.4.24.11; NEP) and human angiotensin converting enzyme (ACE) were determined using in vitro assays as described below.
# Recombinant human NEP and recombinant human ACE were obtained commercially (R&D Systems, Minneapolis, Minn., catalog numbers 1182-ZN and 929-ZN, respectively). The fluorogenic peptide substrate Mca-D-Arg-Arg-Leu-Dap-(Dnp)-OH (Medeiros et al. (1997) Braz. J. Med. Biol. Res. 30:1157-62; Anaspec, San Jose, Calif.) and Abz-Phe-Arg-Lys(Dnp)-Pro-OH (Araujo et al. (2000) Biochemistry 39:8519-8525; Bachem, Torrance, Calif.) were used in the NEP and ACE assays respectively.
# The assays were performed in 384-well white opaque plates at 37° C. using the fluorogenic peptide substrates at a concentration of 10 μM in Assay Buffer (NEP: 50 mM HEPES, pH 7.5, 100 mM NaCl, 0.01% polyethylene glycol sorbitan monolaurate (Tween-20), 10 μM ZnSO4; ACE: 50 mM HEPES, pH 7.5, 100 mM NaCl, 0.01% Tween-20, 1 μM ZnSO4).
# Test compounds were assayed over the range of concentrations from […] to 20 μM. Test compounds were added to the enzymes and incubated for 30 minute at 37° C. prior to initiating the reaction by the addition of substrate. Reactions were terminated after 20 minutes of incubation at 37° C. by the addition of glacial acetic acid to a final concentration of 3.6% (v/v).
# Plates were read on a fluorometer with excitation and emission wavelengths set to 320 nm and 405 nm, respectively. Inhibition constants were obtained by nonlinear regression of the data using the equation (GraphPad Software, Inc., San Diego, Calif.): ν=ν0/[1+(I/K′)] where ν is the reaction rate, ν0 is the uninhibited reaction rate, I is the inhibitor concentration and K′ is the apparent inhibition constant.
# Compounds of the invention were tested in this assay and found to have pKi values at human NEP as follows.
# T1 sequence (P08473 52-750 limits assumed): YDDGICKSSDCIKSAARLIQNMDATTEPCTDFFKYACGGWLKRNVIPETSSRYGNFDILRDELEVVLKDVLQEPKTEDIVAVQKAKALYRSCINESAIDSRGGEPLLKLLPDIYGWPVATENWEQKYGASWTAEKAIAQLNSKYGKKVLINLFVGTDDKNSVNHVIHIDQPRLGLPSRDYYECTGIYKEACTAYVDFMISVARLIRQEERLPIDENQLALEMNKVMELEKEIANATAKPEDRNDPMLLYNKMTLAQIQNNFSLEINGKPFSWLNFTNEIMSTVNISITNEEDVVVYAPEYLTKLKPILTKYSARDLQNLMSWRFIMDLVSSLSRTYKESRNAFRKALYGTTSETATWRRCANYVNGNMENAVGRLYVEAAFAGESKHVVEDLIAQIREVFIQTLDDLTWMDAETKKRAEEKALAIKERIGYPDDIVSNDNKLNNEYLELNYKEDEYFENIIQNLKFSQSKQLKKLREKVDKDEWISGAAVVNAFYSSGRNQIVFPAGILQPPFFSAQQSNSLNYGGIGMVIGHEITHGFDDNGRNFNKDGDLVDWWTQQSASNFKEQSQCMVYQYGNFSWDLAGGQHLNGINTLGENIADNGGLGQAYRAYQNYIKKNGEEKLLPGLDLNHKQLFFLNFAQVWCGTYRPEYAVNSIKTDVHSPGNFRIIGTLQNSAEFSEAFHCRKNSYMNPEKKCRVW
Ki [nM],pKi,Structure (SMILES)
1 to 10,–,"CCC(=O)C(=O)N[C@H](Cc1ccc(-c2cccc(Cl)c2)cc1)C[C@@H](O)C(=O)O [Example 1, (2R,4R)-5-(3′-Chlorobiphenyl-4-yl)-2-hydroxy-4-(2-oxobutyrylamino)pentanoic Acid]"
1 to 10,–,"CC(C)CC(=O)C(=O)N[C@H](Cc1ccc(-c2cccc(Cl)c2)cc1)C[C@@H](O)C(=O)O [Example 2-1, (2R,4R)-5-(3′-Chloro-biphenyl-4-yl)-2-hydroxy-4-(4-methyl-2-oxo-pentanoylamino)-pentanoic acid]"
1 to 10,–,"O=C(Cc1ccccc1)C(=O)N[C@H](Cc1ccc(-c2cccc(Cl)c2)cc1)C[C@@H](O)C(=O)O [Example 2-2, (2R,4R)-5-(3′-Chloro-biphenyl-4-yl)-2-hydroxy-4-(2-oxo-3-phenyl-propionylamino)-pentanoic acid]"
≤ 1,–,"O=C(N[C@H](Cc1ccc(-c2cccc(Cl)c2)cc1)C[C@@H](O)C(=O)O)C(=O)N1CCC[C@H]1CO [Example 3, (2R,4R)-5-(3′-Chlorobiphenyl-4-yl)-2-hydroxy-4-[2-((S)-2-hydroxymethylpyrrolidin-1-yl)-2-oxo-acetylamino]pentanoic Acid]"
10 to 31.6,–,"O=C(NC1CCCC1)C(=O)N[C@H](Cc1ccc(-c2cccc(Cl)c2)cc1)C[C@@H](O)C(=O)O [Example 4-1, (2R,4R)-5-(3′-Chlorobiphenyl-4-yl)-4-(cyclopentylaminooxalylamino)-2-hydroxypentanoic acid]"
10 to 31.6,–,"O=C(Nc1ccc(Br)nc1)C(=O)N[C@H](Cc1ccc(-c2cccc(Cl)c2)cc1)C[C@@H](O)C(=O)O [Example 4-2, (2R,4R)-4-[(6-Bromopyridin-3-ylaminooxalyl)amino]-5-(3′-chlorobiphenyl-4-yl)-2-hydroxypentanoic acid]"
10 to 31.6,–,"O=C(Nc1ccncc1)C(=O)N[C@H](Cc1ccc(-c2cccc(Cl)c2)cc1)C[C@@H](O)C(=O)O [Example 4-3, (2R,4R)-5-(3′-Chlorobiphenyl-4-yl)-2-hydroxy-4-[(pyridin-4-ylaminooxalyl)-amino]-pentanoic acid]"
1 to 10,–,"Cc1ccncc1NC(=O)C(=O)N[C@H](Cc1ccc(-c2cccc(Cl)c2)cc1)C[C@@H](O)C(=O)O [Example 4-4, (2R,4R)-5-(3′-Chlorobiphenyl-4-yl)-2-hydroxy-4-[(4-methylpyridin-3-ylaminooxalyl)amino]pentanoic acid]"
10 to 31.6,–,"O=C(NOCc1ccccc1)C(=O)N[C@H](Cc1ccc(-c2cccc(Cl)c2)cc1)C[C@@H](O)C(=O)O [Example 4-5, (2R,4R)-4-(Benzyloxyaminooxalylamino)-5-(3′-chlorobiphenyl-4-yl)-2-hydroxy-pentanoic acid]"
1 to 10,–,"CONC(=O)C(=O)N[C@H](Cc1ccc(-c2cccc(Cl)c2)cc1)C[C@@H](O)C(=O)O [Example 4-6, (2R,4R)-5-(3′-Chlorobiphenyl-4-yl)-2-hydroxy-4-(methoxyaminooxalylamino)-pentanoic acid]"
1 to 10,–,"O=C(NC1CONC1=O)C(=O)N[C@H](Cc1ccc(-c2cccc(Cl)c2)cc1)C[C@@H](O)C(=O)O (stereo partly drawn) [Example 4-7, (2R,4R)-5-(3′-Chlorobiphenyl-4-yl)-2-hydroxy-4-[(3-oxo-isoxazolidin-4-ylaminooxalyl)-amino]pentanoic acid]"
10 to 31.6,–,"O=C(N[C@H](Cc1ccc(-c2cccc(Cl)c2)cc1)C[C@@H](O)C(=O)O)C(=O)NN1CCOCC1 [Example 4-8, (2R,4R)-5-(3′-Chlorobiphenyl-4-yl)-2-hydroxy-4-[(morpholin-4-ylaminooxalyl)-amino]pentanoic acid]"
–,8.0-9.0,"O=C(N[C@H](Cc1ccc(-c2cccc(Cl)c2)cc1)C[C@@H](O)C(=O)O)C(=O)N(O)c1ccccc1 [Example 4-9, (2R,4R)-5-(3′-Chlorobiphenyl-4-yl)-2-hydroxy-4-[(hydroxyphenylaminooxalyl)-amino]pentanoic acid]"
–,7.5-8.0,"CN(O)C(=O)C(=O)N[C@H](Cc1ccc(-c2cccc(Cl)c2)cc1)C[C@@H](O)C(=O)O [Example 4-10, (2R,4R)-5-(3′-Chlorobiphenyl-4-yl)-2-hydroxy-4-[(hydroxymethylaminooxalyl)-amino]pentanoic acid]"
10 to 31.6,–,"CN(C)C(=O)C(=O)N[C@H](Cc1ccc(-c2cccc(Cl)c2)cc1)C[C@@H](O)C(=O)O [Example 4-11, (2R,4R)-5-(3′-Chlorobiphenyl-4-yl)-4-(dimethylaminooxalylamino)-2-hydroxy-pentanoic acid]"
1 to 10,–,"CON(C)C(=O)C(=O)N[C@H](Cc1ccc(-c2cccc(Cl)c2)cc1)C[C@@H](O)C(=O)O [Example 4-12, (2R,4R)-5-(3′-Chlorobiphenyl-4-yl)-2-hydroxy-4-[(methoxymethylaminooxalyl)-amino]pentanoic acid]"
1 to 10,–,"O=C(N[C@H](Cc1ccc(-c2cccc(Cl)c2)cc1)C[C@@H](O)C(=O)O)C(=O)N1CC(O)C1 [Example 4-13, (2R,4R)-5-(3′-Chlorobiphenyl-4-yl)-2-hydroxy-4-[2-(3-hydroxyazetidin-1-yl)-2-oxo-acetylamino]pentanoic acid]"
10 to 31.6,–,"O=C(N[C@H](Cc1ccc(-c2cccc(Cl)c2)cc1)C[C@@H](O)C(=O)O)C(=O)N1CC(F)(F)C1 [Example 4-14, (2R,4R)-5-(3′-Chlorobiphenyl-4-yl)-4-[2-(3,3-difluoroazetidin-1-yl)-2-oxo-acetylamino]-2-hydroxypentanoic acid]"
1 to 10,–,"CS(=O)(=O)C1CCN(C(=O)C(=O)N[C@H](Cc2ccc(-c3cccc(Cl)c3)cc2)C[C@@H](O)C(=O)O)C1 (stereo partly drawn) [Example 4-15, (2R,4R)-5-(3′-Chlorobiphenyl-4-yl)-2-hydroxy-4-[2-(3-methanesulfonyl-pyrrolidin-1-yl)-2-oxo-acetylamino]pentanoic acid]"
1 to 10,–,"O=C(N[C@H](Cc1ccc(-c2cccc(Cl)c2)cc1)C[C@@H](O)C(=O)O)C(=O)N1CCC[C@@H]1CO [Example 4-16, (2R,4R)-5-(3′-Chlorobiphenyl-4-yl)-2-hydroxy-4-[2-((R)-2-hydroxymethyl-pyrrolidin-1-yl)-2-oxo-acetylamino]pentanoic acid]"
10 to 31.6,–,"NC(=O)C1CCN(C(=O)C(=O)N[C@H](Cc2ccc(-c3cccc(Cl)c3)cc2)C[C@@H](O)C(=O)O)C1 (stereo partly drawn) [Example 4-17, (2R,4R)-4-[2-(3-Carbamoylpyrrolidin-1-yl)-2-oxo-acetylamino]-5-(3′-chloro-biphenyl-4-yl)-2-hydroxypentanoic acid]"
≤ 1,–,"O=C(N[C@H](Cc1ccc(-c2cccc(Cl)c2)cc1)C[C@@H](O)C(=O)O)C(=O)N1CCC(O)CC1 [Example 4-18, (2R,4R)-5-(3′-Chlorobiphenyl-4-yl)-2-hydroxy-4-[2-(4-hydroxy-piperidin-1-yl)-2-oxo-acetylamino]pentanoic acid]"
10 to 31.6,–,"COCC1CCN(C(=O)C(=O)N[C@H](Cc2ccc(-c3cccc(Cl)c3)cc2)C[C@@H](O)C(=O)O)CC1 [Example 4-19, (2R,4R)-5-(3′-Chlorobiphenyl-4-yl)-2-hydroxy-4-[2-(4-methoxymethyl-piperidin-1-yl)-2-oxo-acetylamino]pentanoic acid]"
≤ 1,–,"O=C(N[C@H](Cc1ccc(-c2cccc(Cl)c2)cc1)C[C@@H](O)C(=O)O)C(=O)N1CCC(CO)CC1 [Example 4-20, (2R,4R)-5-(3′-Chlorobiphenyl-4-yl)-2-hydroxy-4-[2-(4-hydroxymethyl-piperidin-1-yl)-2-oxo-acetylamino]pentanoic acid]"
1 to 10,–,"O=C(N[C@H](Cc1ccc(-c2cccc(Cl)c2)cc1)C[C@@H](O)C(=O)O)C(=O)N1CCC[C@@H](O)C1 [Example 4-21, (2R,4R)-5-(3′-Chlorobiphenyl-4-yl)-2-hydroxy-4-[2-((R)-3-hydroxy-piperidin-1-yl)-2-oxo-acetylamino]pentanoic acid]"
1 to 10,–,"CC1(O)CCN(C(=O)C(=O)N[C@H](Cc2ccc(-c3cccc(Cl)c3)cc2)C[C@@H](O)C(=O)O)CC1 [Example 4-22, (2R,4R)-5-(3′-Chlorobiphenyl-4-yl)-2-hydroxy-4-[2-(4-hydroxy-4-methyl-piperidin-1-yl)-2-oxo-acetylamino]pentanoic acid]"
10 to 31.6,–,"O=C(N[C@H](Cc1ccc(-c2cccc(Cl)c2)cc1)C[C@@H](O)C(=O)O)C(=O)N1CCC(c2ccncc2)CC1 [Example 4-23, (2R,4R)-5-(3′-Chlorobiphenyl-4-yl)-2-hydroxy-4-[2-oxo-2-(3,4,5,6-tetrahydro-2H-[4,4′]bipyridinyl-1-yl)-acetylamino]pentanoic acid]"
1 to 10,–,"O=C(N[C@H](Cc1ccc(-c2cccc(Cl)c2)cc1)C[C@@H](O)C(=O)O)C(=O)N1CCC(CCO)CC1 [Example 4-24, (2R,4R)-5-(3′-Chlorobiphenyl-4-yl)-2-hydroxy-4-{2-[4-(2-hydroxyethyl)-piperidin-1-yl]-2-oxo-acetylamino}pentanoic acid]"
